Results reported in ChEMBL document CHEMBL3885861, “Open TG-GATES”.

Organism: Rattus norvegicus
Assay: Open TG-GATES - Regimen: Single
Assay type: toxicity, organism-based, Sprague-Dawley
Set-up: regimen Single, gender Male, age 6 weeks
Conditions: in vivo, po, 2000 mg/kg, route gavage, dose level High; for APTT / Bas / Eos / Fbg / Hb / Ht / Lym / MCH / MCHC / MCV / Mono / Neu / PT / Plat / RBC / Ret / WBC: tissue Blood; for KIDNEY_L / KIDNEY_R / KIDNEY_TOTAL: tissue Kidney; for LIVER: tissue Liver; for A/G / ALP / ALT / AST / BUN / CRE / Ca / Cl / DBIL / GLC / IP / K / LDH / Na / PL / RALB / TBIL / TC / TG / TP / gamma-GTP: tissue Plasma

SMILES: COc1ccc(O)c(C(C)(C)C)c1.COc1ccc(O)cc1C(C)(C)C [BUTYLATED HYDROXYANISOLE]
- TERMINAL_BW (3 h): 203.7 g
- APTT (3 h): 15.1 s
- Bas (3 h): 0.1%
- Eos (3 h): 0.6%
- Fbg (3 h): 266 mg/dL
- Hb (3 h): 13.4 g/dL
- Ht (3 h): 39%
- Lym (3 h): 75.5%
- MCH (3 h): 21.4 pg
- MCHC (3 h): 34.3%
- MCV (3 h): 62.3 fL
- Mono (3 h): 1.9%
- Neu (3 h): 20.8%
- PT (3 h): 12.1 s
- Plat (3 h): 140.3 x10_4/uL
- RBC (3 h): 626.2 x10_4/ul
- Ret (3 h): 8.2%
- WBC (3 h): 81.2 x10_2/uL
- KIDNEY_L (3 h): 0.9 g
- KIDNEY_R (3 h): 0.8 g
- KIDNEY_TOTAL (3 h): 1.7 g
- LIVER (3 h): 7.8 g
- A/G (3 h): 0.9
- ALP (3 h): 1489.2 IU/L
- ALT (3 h): 51.4 IU/L
- AST (3 h): 79 IU/L
- BUN (3 h): 9.4 mg/dL
- CRE (3 h): 0.2 mg/dL
- Ca (3 h): 10.9 mg/dL
- Cl (3 h): 105.8 meq/L
- DBIL (3 h): 0.028 mg/dL
- GLC (3 h): 174.6 mg/dL
- IP (3 h): 10 mg/dL
- K (3 h): 3.6 meq/L
- LDH (3 h): 63.6 IU/L
- Na (3 h): 142 meq/L
- PL (3 h): 119 mg/dL
- RALB (3 h): 2.7 g/dL
- TBIL (3 h): 0.096 mg/dL
- TC (3 h): 70.4 mg/dL
- TG (3 h): 55.4 mg/dL
- TP (3 h): 5.7 g/dL
- gamma-GTP (3 h): 1 IU/L
- TERMINAL_BW (6 h): 202.1 g
- APTT (6 h): 16.4 s
- Bas (6 h): 0.2%
- Eos (6 h): 0.6%
- Fbg (6 h): 267.6 mg/dL
- Hb (6 h): 13.5 g/dL
- Ht (6 h): 39.6%
- Lym (6 h): 68.4%
- MCH (6 h): 20.9 pg
- MCHC (6 h): 34.2%
- MCV (6 h): 61.1 fL
- Mono (6 h): 2.8%
- Neu (6 h): 27%
- PT (6 h): 12.6 s
- Plat (6 h): 154.9 x10_4/uL
- RBC (6 h): 646.8 x10_4/ul
- Ret (6 h): 7.5%
- WBC (6 h): 78.3 x10_2/uL
- KIDNEY_L (6 h): 0.9 g
- KIDNEY_R (6 h): 0.9 g
- KIDNEY_TOTAL (6 h): 1.7 g
- LIVER (6 h): 7.7 g
- A/G (6 h): 0.8
- ALP (6 h): 1463.6 IU/L
- ALT (6 h): 49 IU/L
- AST (6 h): 73.8 IU/L
- BUN (6 h): 11.2 mg/dL
- CRE (6 h): 0.2 mg/dL
- Ca (6 h): 10.8 mg/dL
- Cl (6 h): 106.8 meq/L
- DBIL (6 h): 0.024 mg/dL
- GLC (6 h): 172.4 mg/dL
- IP (6 h): 10.4 mg/dL
- K (6 h): 4 meq/L
- LDH (6 h): 62.4 IU/L
- Na (6 h): 141.8 meq/L
- PL (6 h): 124.2 mg/dL
- RALB (6 h): 2.6 g/dL
- TBIL (6 h): 0.084 mg/dL
- TC (6 h): 75.8 mg/dL
- TG (6 h): 40.8 mg/dL
- TP (6 h): 5.8 g/dL
- gamma-GTP (6 h): 1.2 IU/L
- TERMINAL_BW (9 h): 199.8 g
- APTT (9 h): 17.5 s
- Bas (9 h): 0.2%
- Eos (9 h): 0.7%
- Fbg (9 h): 289 mg/dL
- Hb (9 h): 13.9 g/dL
- Ht (9 h): 40.9%
- Lym (9 h): 68.4%
- MCH (9 h): 20.7 pg
- MCHC (9 h): 34%
- MCV (9 h): 60.9 fL
- Mono (9 h): 1.6%
- Neu (9 h): 28.5%
- PT (9 h): 13 s
- Plat (9 h): 141.5 x10_4/uL
- RBC (9 h): 671.8 x10_4/ul
- Ret (9 h): 7%
- WBC (9 h): 76.1 x10_2/uL
- KIDNEY_L (9 h): 0.9 g
- KIDNEY_R (9 h): 0.9 g
- KIDNEY_TOTAL (9 h): 1.8 g
- LIVER (9 h): 7.2 g
- A/G (9 h): 0.8
- ALP (9 h): 1379.8 IU/L
- ALT (9 h): 40.8 IU/L
- AST (9 h): 69 IU/L
- BUN (9 h): 9.2 mg/dL
- CRE (9 h): 0.2 mg/dL
- Ca (9 h): 10.9 mg/dL
- Cl (9 h): 108.2 meq/L
- DBIL (9 h): 0.03 mg/dL
- GLC (9 h): 167.6 mg/dL
- IP (9 h): 10.2 mg/dL
- K (9 h): 4 meq/L
- LDH (9 h): 58.6 IU/L
- Na (9 h): 143.6 meq/L
- PL (9 h): 141.4 mg/dL
- RALB (9 h): 2.7 g/dL
- TBIL (9 h): 0.096 mg/dL
- TC (9 h): 87.6 mg/dL
- TG (9 h): 42.2 mg/dL
- TP (9 h): 5.9 g/dL
- gamma-GTP (9 h): 1 IU/L
- TERMINAL_BW (24 h): 207.8 g
- APTT (24 h): 16.8 s
- Bas (24 h): 0.2%
- Eos (24 h): 0.8%
- Fbg (24 h): 289.8 mg/dL
- Hb (24 h): 13.7 g/dL
- Ht (24 h): 39.6%
- Lym (24 h): 78.6%
- MCH (24 h): 21.2 pg
- MCHC (24 h): 34.6%
- MCV (24 h): 61.3 fL
- Mono (24 h): 2.2%
- Neu (24 h): 17.4%
- PT (24 h): 12.3 s
- Plat (24 h): 155.8 x10_4/uL
- RBC (24 h): 646.8 x10_4/ul
- Ret (24 h): 5.8%
- WBC (24 h): 68 x10_2/uL
- KIDNEY_L (24 h): 0.9 g
- KIDNEY_R (24 h): 0.9 g
- KIDNEY_TOTAL (24 h): 1.8 g
- LIVER (24 h): 9.3 g
- A/G (24 h): 0.8
- ALP (24 h): 1603 IU/L
- ALT (24 h): 53 IU/L
- AST (24 h): 73.6 IU/L
- BUN (24 h): 12.6 mg/dL
- CRE (24 h): 0.2 mg/dL
- Ca (24 h): 11.5 mg/dL
- Cl (24 h): 108.6 meq/L
- DBIL (24 h): 0.044 mg/dL
- GLC (24 h): 155.2 mg/dL
- IP (24 h): 8.5 mg/dL
- K (24 h): 4.2 meq/L
- LDH (24 h): 82.4 IU/L
- Na (24 h): 142.8 meq/L
- PL (24 h): 152.2 mg/dL
- RALB (24 h): 2.7 g/dL
- TBIL (24 h): 0.088 mg/dL
- TC (24 h): 93.4 mg/dL
- TG (24 h): 217 mg/dL
- TP (24 h): 5.9 g/dL
- gamma-GTP (24 h): 1 IU/L
